Assay results as given in patent publication US11505548B2, “Heterocyclic compounds and their use for treatment of helminthic infections and diseases” (Celgene Corporation, priority 2019, dated 2022).

System: microfilariae of Dirofilaria immitis
Assay: Dirofilaria immitis, Microfilaria (DiMF) Assay
Type: cell-based
Details: read-out: D. immitis activity level (IC50 or MED)
Outline: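 D. immitis microfilariae were incubated in medium with DMSO-diluted compounds for about 72 h. Survival or paralysis was scored subjectively under the microscope. Values are Minimum Effective Dose (MED).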

Row | SMILES | IC50
1 | Cc1cnc(Nc2nc(-c3cc(OC4COC4)ccn3)ns2)c(C(F)(F)F)c1 [Compound 275, N-(5-methyl-3-(trifluoromethyl)pyridin-2-yl)-3-(4-(oxetan-3-yloxy)pyridin-2-yl)-1,2,4-thiadiazol-5-amine] | < 0.2 µM
2 | COc1ccc(-c2nsc(Nc3ccc(C(F)(F)F)cn3)n2)nc1 [Compound 209, 3-(5-methoxy-pyridin-2-yl)-N-(5-(trifluoromethyl)pyridin-2-yl)-1,2,4-thiadiazol-5-amine] | 0.5 to 5 µM
3 | Cc1cccnc1Nc1nc(-c2ccc(OC3CCN(C(=O)C(C)C)CC3)cn2)ns1 [Compound 265, 2-methyl-1-(4-(6-(5-(3-methylpyridin-2-ylamino)-1,2,4-thiadiazol-3-yl)pyridin-3-yloxy)piperidin-1-yl)propan-1-one] | 0.5 to 5 µM
4 | FC(F)(F)c1ccnc(Nc2nc(-c3cc(C4CC4)ccn3)ns2)c1 [Compound 85, 3-(4-cyclopropyl-pyridin-2-yl)-N-(4-(trifluoromethyl)pyridin-2-yl)-1,2,4-thiadiazol-5-amine] | < 0.2 µM
